Results on 22 compounds are retold here after publication PMC6539584, “Mosquito Acetylcholinesterase as a Target for Novel Phenyl-Substituted Carbamates” (International Journal of Environmental Research and Public …, 2019).

Like-named read-outs stand apart in the source and are kept apart here.

Experiment [1] deals with T1, hAChE (Homo sapiens, UniProt P22303).
T1 construct: gene ACHE; commercial recombinant human enzyme (Sigma-Aldrich)
The experiment can be described thus: Ellman assay, 96-well, […] nm. Type of experiment: biochemical. A general note: In Ellman's method for cholinesterases, released thiocholine reacts with DTNB.

In experiment [2] the target is T1, hAChE. The experiment can be described thus: Ellman assay, 96-well, […] nm. In kind it is biochemical. The source holds these as a separate data set.
Experiment [3] can be described thus: Ellman assay, 96-well, […] nm. Type of experiment: biochemical, Homo sapiens. As to conditions: read-out: AgAChE, IC50, ^a nM.
Setting [4] is: acetylthiocholine, pH 7.8, 10 min pre-incubation, 0.1% DMSO; covalent; read-out: hAChE IC50 ^a; cited from earlier work.

T1 sequence (P22303 32-614): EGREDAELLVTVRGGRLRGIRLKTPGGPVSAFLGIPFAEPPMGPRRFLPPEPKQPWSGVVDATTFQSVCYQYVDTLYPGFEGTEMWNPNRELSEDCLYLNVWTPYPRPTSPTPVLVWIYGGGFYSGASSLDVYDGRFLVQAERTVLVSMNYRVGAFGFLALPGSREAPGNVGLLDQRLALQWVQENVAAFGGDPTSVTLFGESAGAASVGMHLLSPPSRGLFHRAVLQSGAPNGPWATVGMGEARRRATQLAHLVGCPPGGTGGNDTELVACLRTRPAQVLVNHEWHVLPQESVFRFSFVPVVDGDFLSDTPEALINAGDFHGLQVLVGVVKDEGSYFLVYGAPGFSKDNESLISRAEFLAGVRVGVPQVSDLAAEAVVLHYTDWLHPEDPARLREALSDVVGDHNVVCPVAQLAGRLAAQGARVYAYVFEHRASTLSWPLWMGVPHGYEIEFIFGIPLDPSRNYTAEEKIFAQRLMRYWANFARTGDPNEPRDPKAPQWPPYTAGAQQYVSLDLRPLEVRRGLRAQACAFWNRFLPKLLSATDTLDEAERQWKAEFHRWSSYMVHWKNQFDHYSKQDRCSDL

In the case of “3-(tert-butyl)-4-(ethyl(methyl)carbamoyl)phenyl methylcarbamate [1l]”, the IC50 at hAChE [1] (acetylthiocholine, pH 7.8, 10 min pre-incubation, 0.1% DMSO, covalent, read-out: hAChE ^aIC50) worked out at 5.5 µM.

As to `CNC(=O)Oc1cccc(C(C)(C)C)c1` [1a, 3-tert-butylphenyl methylcarbamate], the IC50 on hAChE [2] (read-out: hAChE ^aIC50; acetylthiocholine, pH 7.8, 10 min pre-incubation, 0.1% DMSO; covalent; cited from earlier work) is 0.32 µM.

Turning to `CNC(=O)Oc1ccc(Br)c(C(C)(C)C)c1` [1b, 4-bromo-3-(tert-butyl)phenyl methylcarbamate], at hAChE [1], the IC50 is 1.2 µM.

Regarding `CNC(=O)Oc1cc(C(C)(C)C)ccc1Br` [1d, 2-bromo-5-(tert-butyl)phenyl methylcarbamate], on hAChE [1], the IC50 is 0.048 µM.

With `CNC(=O)Oc1cc(C(C)(C)C)ccc1I` [1e, 5-(tert-butyl)-2-iodophenyl methylcarbamate], the IC50 at hAChE [1] turned out to be 0.64 µM.

As for `CCCCCCc1ccc(C(C)(C)C)cc1OC(=O)NC` [1f, 5-(tert-butyl)-2-hexylphenyl methylcarbamate], the IC50 at hAChE [1] worked out at 6.3 µM.

Take `C=CCNC(=O)c1ccc(OC(=O)NC)cc1C(C)(C)C` [1h, 4-(allylcarbamoyl)-3-(tert-butyl)phenyl methylcarbamate]: the IC50 on hAChE [1] is 2.8 µM.

`CNC(=O)Oc1ccc(C(=O)NC)c(C(C)(C)C)c1` [1i, 3-(tert-butyl)-4-(methylcarbamoyl)phenyl methylcarbamate]: the IC50 on hAChE [1] is over 100 µM.

For `CNC(=O)Oc1ccc(C(=O)NCC(C)C)c(C(C)(C)C)c1` [1j, 3-(tert-butyl)-4-(isobutylcarbamoyl)phenyl methylcarbamate], the IC50 against hAChE [1] was over 100 µM.

As to `CCN(CC)C(=O)c1ccc(OC(=O)NC)cc1C(C)(C)C` [1k, 3-(tert-butyl)-4-(diethylcarbamoyl)phenyl methylcarbamate], the IC50 against hAChE [1] is 2.3 µM.

The compound `CNC(=O)Oc1cc(C(C)(C)C)ccc1SC` [1m, 5-(tert-butyl)-2-(methylthio)phenyl methylcarbamate] showed an IC50 against hAChE [1] of 0.64 µM.

On to `CNC(=O)Oc1cc(C(C)(C)C)ccc1SCC(C)C` [1n, 5-(tert-butyl)-2-(isobutylthio)phenyl methylcarbamate], for which the IC50 at hAChE [1] was found to be 4.7 µM.

In turn, `CNC(=O)Oc1cc(C(C)(C)C)ccc1SC(C)C` [1o, 5-(tert-butyl)-2-(isopropylthio)phenyl methylcarbamate] displayed an IC50 against hAChE [1] of 2.2 µM.

Consider `CNC(=O)Oc1cccc(C(F)(F)F)c1` [2a, 3-(trifluoromethyl)phenyl methylcarbamate], for which, in experiment [3], the IC50 is over 100000 nM.

For the compound `CNC(=O)Oc1cccc([Si](C)(C)C)c1` [3a], on hAChE [2] (setting [4]), the IC50 is 0.49 µM.

Turning to `CNC(=O)Oc1ccc(C)c([Si](C)(C)C)c1` [3c, 4-methyl-3-(trimethylsilyl)phenyl methylcarbamate], the IC50 against hAChE [1] turned out to be 2.4 µM.

Take `CNC(=O)Oc1cc(F)cc([Si](C)(C)C)c1` [3g, 3-fluoro-5-(trimethylsilyl)phenyl methylcarbamate]: on hAChE [1], the IC50 was 4.2 µM.

`CC[Si](C)(C)c1cccc(OC(=O)NC)c1` [4a]: at hAChE [2] (setting [4]), the IC50 is 0.63 µM.

In the case of `CC[Si](C)(C)c1cc(OC(=O)NC)ccc1C` [4c, 3-(ethyldimethylsilyl)-4-methylphenyl methylcarbamate], on hAChE [1], the IC50 was found to be 1.4 µM.

Compound `CC[Si](C)(C)c1cc(F)cc(OC(=O)NC)c1` [4g, 3-(ethyldimethylsilyl)-5-fluorophenyl methylcarbamate] came in with an IC50 against hAChE [1] of 1.9 µM.

As to `CCC(CC)CSc1ccccc1OC(=O)NC` [5a], the IC50 at hAChE [2] (read-out: hAChE IC50 ^a; acetylthiocholine, pH 7.8, 10 min pre-incubation, 0.1% DMSO; covalent; cited from earlier work) is 5 µM.

`CCCSc1ccccc1OC(=O)NC` [6a, 2-(propylthio)phenyl methylcarbamate] returned an IC50 on hAChE [1] of 2.3 µM.
